Experimental data: patent publication US9163018B2, “Method of treatment of age-related macular degeneration (AMD)” (Prana Biotechnology Limited, priority 2006, dated 2015)

Key:
Aβ 1-42 = target: T1, Aβ 1-42 (Homo sapiens, UniProt P05067); experiment: Fluorometric H2O2 assay (inhibition of Abeta H2O2 production); assay type: biochemical; settings: concentration required to inhibit 50% of Abeta H2O2 production; read-out: H2O2 IC50
T1 construct: The reaction solutions contained Aβ 1-42 at concentrations
T1 sequence (P05067 672-713 limits assumed): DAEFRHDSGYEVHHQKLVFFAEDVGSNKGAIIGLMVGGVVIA
Summary of the method: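 Reactions in PBS pH 7.4 at 37 C for 60 min, containing Aβ, copper and test compound. H2O2 output read as fluorescence of HRP-coupled deacetylated DCF. Fluorescence converted to H2O2 concentration via H2O2 standards.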

[1] = system: primary cortical neuronal cultured cells; experiment: Test compound cytotoxicity, MTS assay, primary cortical neuronal cultures; assay type: cell-based, mouse
Summary of the method: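 Primary cortical neurons were cultured five days in Neurobasal/B27, then exposed on day six to compounds (from 2.5 mM DMSO stocks) in medium minus antioxidants, in triplicate for 4 days at 37° C. Viability was measured by MTS, 2 h at 37° C, absorbance at 560 nm.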

[2] = system: dityrosine oligomerization; experiment: CuTy: inhibition of dityrosine oligomerization; assay type: biochemical; settings: referenced to in-house standard (set as 100% inhibition)
[3] = system: Abeta in extract of post-mortem human AD brain tissue; experiment: BAS: human brain amyloid solubilization assay; assay type: biochemical; settings: max effect across the concentration range, referenced to baseline PBS
Summary of the method: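 Plaque-bearing post-mortem AD cortex homogenised in ice-cold PBS pH 7.4; soluble Aβ in 100,000×g supernatant, insoluble Aβ from resuspended pellet. Fractions run on Tris-Tricine SDS-PAGE, immunoblotted with W02, densitometry against synthetic Aβ40 standards.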

[4] = Mice plasma concentration after oral dose; assay type: in vivo; settings: 30 min to 4 h after single or repeat oral dose of 30 mg/kg
Aβ deposits = settings: daily oral gavage 30 mg/kg, 9 weeks, 13-14 months old transgenic mice
[5] = Toxicity, visual observations in mice; settings: 30 mg/kg; duration and visual observations

## CN(C)Cc1ccc2c(Cl)cc(Cl)c(O)c2n1.Cl [PB 1033]
Aβ 1-42
  IC50: 0.35 µM
[1]; 1 μM test compound
  Cytotox (% viable) Neuronal cells at 1 μM: 84%
[1]; 10 μM test compound
  Cytotox (% viable) Neuronal cells at 10 μM: 72%
[2]
  CuTy % inhibition of dityrosine oligomerization: 100%
[3]
  BAS max effect: 470%
[4]
  Mice plasma concentration: Up to 500 ng/ml ng/mL
Aβ deposits
  Tg Mice % difference from control in Amyloid plaque abundance: −42%
  Tg Mice % difference from control in insoluble brain amyloid burden: −29%
  Tg Mice % difference from control in soluble brain amyloid burden: −37%
[5]
  Toxicity at 30 mg/kg: 10 days, none
